Each structure is given as a SMILES string.

Broadly, the inhibition is the relative decrease from the control value, in per cent. A word on the CC50: it is the concentration that lowers cell viability or growth by half. The low end stands for harm at low concentration, the high end for better tolerance by the cells.

The subject of one series is HIV-IIIb. Kind of series: Test A: Antiviral Assay in MT4 Cells. It counts as cell-based, HIV-1. The conditions noted are these: Human immunodeficiency virus 1, IIIB, MT4, 120 h; for inhibition at 0.2 µM: read-out: % inhibition at 0.2 μM; for inhibition at 2 µM: read-out: % inhibition at 2 μM. The procedure:
Test A: Antiviral Assay in MT4 Cells
(§1) MT-4 cells were next mixed with HIV-IIIb at an m.o.i of 0.003 for 1 hour, after which time 35 μL of virus/cell mixture (2000 cells) was immediately added to each well containing 40 μL of diluted compound. The plates were then incubated at 37° C. for 5 days. […] Cell lysis was carried out by incubating at room temperature for 10 min and then chemiluminescence was read.

Series [1] can be described thus: Test B: Cytotoxicity Assay. It counts as cell-based. The conditions noted are these: human, uninfected MT-4 cells, same protocol as Test A. The procedure:
as §1
Test B: Cytotoxicity Assay
Compound cytotoxicity and the corresponding CC50 values was determined using the same protocol as described in the antiviral assay (Test A) except that uninfected cells were used.

In the case of `Cn1nc(NC(N)=O)c2c(Cl)ccc(-c3ccc(C#CC(C)(C)O)nc3[C@H](Cc3cc(F)cc(F)c3)NC(=O)Cn3nc(C(F)F)c4c3C(F)(F)[C@@H]3C[C@H]43)c21` [Compound 92, N—((S)-1-(3-(4-chloro-1-methyl-3-ureido-1H-indazol-7-yl)-6-(3-hydroxy-3-methylbut-1-yn-1-yl)pyridin-2-yl)-2-(3,5-difluorophenyl)ethyl)-2-((3bS,4aR)-3-(difluoromethyl)-5,5-difluoro-3b,4,4a,5-tetrahydro-1H-cyclopropa[3,4]cyclopenta[1,2-c]pyrazol-1-yl)acetamide], in the series on HIV-IIIb, the inhibition at 0.2 µM amounted to 100% and the inhibition at 2 µM amounted to 100%. The compound also returned a CC50 at 5 days in series [1] of 6.24 µM.

In the case of `CC(C)(O)C#Cc1ccc(-c2ccc(Cl)c3c(NS(C)(=O)=O)n[nH]c23)c([C@H](Cc2cc(F)cc(F)c2)NC(=O)Cn2nc(C(F)(F)F)c3c2C(F)(F)[C@@H]2C[C@H]32)n1` [Compound 109, N—((S)-1-(3-(4-chloro-3-(methylsulfonamido)-1H-indazol-7-yl)-6-(3-hydroxy-3-methylbut-1-yn-1-yl)pyridin-2-yl)-2-(3,5-difluorophenyl)ethyl)-2-((3b-S,4aR)-5,5-difluoro-3-(trifluoromethyl)-3b,4,4a,5-tetrahydro-1H-cyclopropa[3,4]cyclopenta[1,2-c]pyrazol-1-yl)acetamide], in the series on HIV-IIIb, the inhibition at 0.2 µM was 97% and the inhibition at 2 µM came to 97%. The same compound gave a CC50 at 5 days in series [1] of 29.6 µM.

`CC(C(=O)N[C@@H](Cc1cc(F)cc(F)c1)c1nc(C#CC(C)(C)O)ccc1-c1ccc(Cl)c2c(NS(C)(=O)=O)nn(C)c12)c1ccccc1` (stereo partly drawn) [Compound 195, N—((S)-1-(3-(4-chloro-1-methyl-3-(methylsulfonamido)-1H-indazol-7-yl)-6-(3-hydroxy-3-methylbut-1-yn-1-yl)pyridin-2-yl)-2-(3,5-difluorophenyl)ethyl)-2-phenylpropanamide]: in the series with HIV-IIIb, the inhibition at 0.2 µM is 88% and the inhibition at 2 µM stood at 90%. Moreover, the CC50 at 5 days in series [1] is 11.2 µM.

With `Cn1nc(NS(N)(=O)=O)c2cccc(-c3ccc(C#CC(C)(C)O)nc3[C@H](Cc3cc(F)cc(F)c3)NC(=O)Cn3nc(C(F)(F)F)c4c3C(F)(F)[C@@H]3C[C@H]43)c21` [Compound 44, 2-((3bS,4aR)-5,5-difluoro-3-(trifluoromethyl)-3b,4,4a,5-tetrahydro-1H-cyclopropa[3,4]cyclopenta[1,2-c]pyrazol-1-yl)-N—((S)-2-(3,5-difluorophenyl)-1-(6-(3-hydroxy-3-methylbut-1-yn-1-yl)-3-(1-methyl-3-(sulfamoylamino)-1H-indazol-7-yl)pyridin-2-yl)ethyl)acetamide], in the series on HIV-IIIb, the inhibition at 0.2 µM turned out to be 94% and the inhibition at 2 µM stood at 94%. Moreover, half-maximal cytotoxicity in series [1] (CC50 at 5 days) was put at 6.82 µM.

Regarding `COCC(=O)Nc1nn(C)c2c(-c3ccc(C#CC(C)(C)O)nc3[C@H](Cc3cc(F)cc(F)c3)NC(=O)Cn3nc(C(F)F)c4c3C(F)(F)[C@@H]3C[C@H]43)ccc(Cl)c12` [Compound 84, N—((S)-1-(3-(4-chloro-3-(2-methoxyacetamido)-1-methyl-1H-indazol-7-yl)-6-(3-hydroxy-3-methylbut-1-yn-1-yl)pyridin-2-yl)-2-(3,5-difluorophenyl)ethyl)-2-((3b-S,4aR)-3-(difluoromethyl)-5,5-difluoro-3b,4,4a,5-tetrahydro-1H-cyclopropa[3,4]cyclopenta[1,2-c]pyrazol-1-yl)acetamide], in the series on HIV-IIIb, the inhibition at 0.2 µM came to 100% and the inhibition at 2 µM was found to be 100%. Besides, in series [1], the CC50 at 5 days was 8.73 µM.

On to `Cn1nc(NS(C)(=O)=O)c2c(Cl)ccc(-c3ccc(C#CC(C)(O)CO)nc3[C@H](Cc3cc(F)cc(F)c3)NC(=O)Cn3nc(C(F)F)c4c3C(F)(F)[C@@H]3C[C@H]43)c21` (stereo partly drawn) [Compound 166, N-((1S)-1-(3-(4-chloro-1-methyl-3-(methylsulfonamido)-1H-indazol-7-yl)-6-(3,4-dihydroxy-3-methylbut-1-yn-1-yl)pyridin-2-yl)-2-(3,5-difluorophenyl)ethyl)-2-((3b-S,4aR)-3-(difluoromethyl)-5,5-difluoro-3b,4,4a,5-tetrahydro-1H-cyclopropa[3,4]cyclopenta[1,2-c]pyrazol-1-yl)acetamide], for which, in the series on HIV-IIIb, the inhibition at 0.2 µM came out at 92% and the inhibition at 2 µM is 92%. In series [1], this compound showed a cytotoxic concentration (CC50) at 5 days of 24.4 µM.

In the case of `Cn1nc(NS(C)(=O)=O)c2c(Cl)ccc(-c3ccc(C#CC(C)(C)O)nc3[C@H](Cc3cc(F)cc(F)c3)NC(=O)Cc3noc4ccccc34)c21` [Compound 198, (S)-2-(benzo[d]isoxazol-3-yl)-N-(1-(3-(4 chloro-1-methyl-3-(methylsulfonamido)-1H-indazol-7-yl)-6-(3-hydroxy-3-methylbut-1-yn-1-yl)pyridin-2-yl)-2-(3,5-difluorophenyl)ethyl)acetamide], in the series with HIV-IIIb, the inhibition at 0.2 µM is 64% and the inhibition at 2 µM stood at 98%. In addition, the CC50 at 5 days in series [1] came out at 23.7 µM.

Turning to `Cn1nc(NS(C)(=O)=O)c2c(Cl)ccc(-c3ccc(C#CC(C)(C)O)nc3[C@H](Cc3cc(F)cc(F)c3)NC(=O)Cn3nc(Cl)c4c3CCCC4)c21` [Compound 126, (S)—N-(1-(3-(4 chloro-1-methyl-3-(methylsulfonamido)-1H-indazol-7-yl)-6-(3-hydroxy-3-methylbut-1-yn-1-yl)pyridin-2-yl)-2-(3,5-difluorophenyl)ethyl)-2-(3-chloro-4,5,6,7-tetrahydro-1H-indazol-1-yl)acetamide], in the series with HIV-IIIb, the inhibition at 0.2 µM was determined as 92% and the inhibition at 2 µM was found to be 92%. Moreover, in series [1], the midpoint of cytotoxicity, the CC50 at 5 days, lay at 15.5 µM.

Consider `Cn1nc(NS(C)(=O)=O)c2c(Cl)ccc(-c3ccc(C#CC(C)(C)O)nc3[C@H](Cc3cc(F)cc(F)c3)NC(=O)Cn3nc(C4(O)CC4)c4c3CCCC4)c21` [Compound 156E, (S)—N-(1-(3-(4 chloro-1-methyl-3-(methylsulfonamido)-1H-indazol-7-yl)-6-(3-hydroxy-3-methylbut-1-yn-1-yl)pyridin-2-yl)-2-(3,5-difluorophenyl)ethyl)-2-(3-(1-hydroxycyclopropyl)-4,5,6,7-tetrahydro-1H-indazol-1-yl)acetamide], for which, in the series with HIV-IIIb, the inhibition at 0.2 µM is 78% and the inhibition at 2 µM was 78%. In addition, the CC50 at 5 days in series [1] came out at 25.6 µM.

Take `CC(C)(O)C#Cc1ccc(-c2cccc3[nH]ncc23)c([C@H](Cc2cc(F)cc(F)c2)NC(=O)Cn2nc(C(F)(F)F)c3c2C(F)(F)[C@@H]2C[C@H]32)n1` [Compound 72, 2-((3bS,4aR)-5,5-difluoro-3-(trifluoromethyl)-3b,4,4a,5-tetrahydro-1H-cyclopropa[3,4]cyclopenta[1,2-c]pyrazol-1-yl)-N—((S)-2-(3,5-difluorophenyl)-1-(6-(3-hydroxy-3-methylbut-1-yn-1-yl)-3-(1H-indazol-4-yl)pyridin-2-yl)ethyl)acetamide]: in the series on HIV-IIIb, the inhibition at 0.2 µM is 85% and the inhibition at 2 µM amounted to 87%. This compound displayed a CC50 at 5 days in series [1] of 5.87 µM.

In the case of `Cn1nc(NS(C)(=O)=O)c2c(Cl)ccc(-c3cc(-c4cccnc4)cnc3[C@H](Cc3cc(F)cc(F)c3)NC(=O)Cn3nc(C(F)F)c4c3C(F)(F)[C@@H]3C[C@H]43)c21` [Compound 185C, N—((S)-1-(5-(4-chloro-1-methyl-3-(methylsulfonamido)-1H-indazol-7-yl)-[3,3′-bipyridin]-6-yl)-2-(3,5-difluorophenyl)ethyl)-2-((3bS,4aR)-3-(difluoromethyl)-5,5-difluoro-3b,4,4a,5-tetrahydro-1H-cyclopropa[3,4]cyclopenta[1,2-c]pyrazol-1-yl)acetamide], in the series on HIV-IIIb, the inhibition at 0.2 µM amounted to 89% and the inhibition at 2 µM worked out at 89%. In series [1], this compound registered a CC50 at 5 days of 18.2 µM.

Regarding `Cn1nc(NS(C)(=O)=O)c2c(Cl)ccc(-c3ccc(C#CC(C)(C)O)nc3[C@H](Cc3cc(F)cc(F)c3)NC(=O)Cn3nc(C(F)(F)F)c4c3CCCC4)c21` [Compound 124, (S)—N-(1-(3-(4 chloro-1-methyl-3-(methylsulfonamido)-1H-indazol-7-yl)-6-(3-hydroxy-3-methylbut-1-yn-1-yl)pyridin-2-yl)-2-(3,5-difluorophenyl)ethyl)-2-(3-(trifluoromethyl)-4,5,6,7-tetrahydro-1H-indazol-1-yl)acetamide], in the series with HIV-IIIb, the inhibition at 0.2 µM was 97% and the inhibition at 2 µM is 97%. This compound registered a CC50 at 5 days in series [1] of 9.14 µM.

With `Cn1nc(N)c2cccc(-c3ccc(C#CC(C)(C)O)nc3[C@H](Cc3cc(F)cc(F)c3)NC(=O)Cn3nc(C(F)(F)F)c4c3C(F)(F)[C@@H]3C[C@H]43)c21` [Compound 25, N—((S)-1-(3-(3-amino-1-methyl-1H-indazol-7-yl)-6-(3-hydroxy-3-methylbut-1-yn-1-yl)pyridin-2-yl)-2-(3,5-difluorophenyl)ethyl)-2-((3b-S,4aR)-5,5-difluoro-3-(trifluoromethyl)-3b,4,4a,5-tetrahydro-1H-cyclopropa[3,4]cyclopenta[1,2-c]pyrazol-1-yl)acetamide], in the series on HIV-IIIb, the inhibition at 0.2 µM turned out to be 89% and the inhibition at 2 µM was 89%. In series [1], half-maximal cytotoxicity (CC50 at 5 days) was put at 9.14 µM.

Regarding `Cc1ccc(C)c2c1NC(=O)C2CC(=O)N[C@@H](Cc1cc(F)cc(F)c1)c1nc(C#CC(C)(C)O)ccc1-c1ccc(Cl)c2c(NS(C)(=O)=O)nn(C)c12` (stereo partly drawn) [Compound 196, N—((S)-1-(3-(4-chloro-1-methyl-3-(methylsulfonamido)-1H-indazol-7-yl)-6-(3-hydroxy-3-methylbut-1-yn-1-yl)pyridin-2-yl)-2-(3,5-difluorophenyl)ethyl)-2-(4,7-dimethyl-2-oxoindolin-3-yl)acetamide], in the series on HIV-IIIb, the inhibition at 0.2 µM amounted to 76% and the inhibition at 2 µM was 92%. This compound registered a half-maximal cytotoxic concentration (CC50) at 5 days in series [1] of 10.8 µM.

Values taken from patent publication US20140303164A1, “THERAPEUTIC COMPOUNDS” (Gilead Sciences, Inc., priority 2013, published 2014).
